Measured values: patent publication US20260115122A1, “PERSONAL CARE COMPOSITIONS COMPRISING PANCRATIUM MARITIMUM” (GALDERMA HOLDING SA, priority 2022, published 2026)

System: Normal Human Epidermal Melanocytes darkly-pigmented (NHEM-DP)
Assay: Melanin content (melanin reduction) assay
Format: cell-based
Conditions: 72 h treatment, test product 0.004%, n=3, FIG. 2
Description: Normal Human Epidermal Melanocytes—NHEMs-DP. Normal Human Epidermal Melanocytes darkly-pigmented (NHEM-DP; Thermo Fisher Scientific, C1025C) were grown in M254 medium (Thermo Fisher Scientific, M254500) supplemented with Human Melanocyte Growth Supplement (HMGS; Thermo Fisher Scientific, S0025) and antibiotics (Gentamycin, Thermo Fisher Scientific, 15710049). The cells were maintained in a humidified incubator at 37° C. with a 5% CO2 atmosphere.
At the end of treatment, NHEM-DP cells (n=3) were lysed using NaOH (1N; Merck, 109956) solution. From the collected extracts, the protein content was quantified by a colorimetric assay (Pierce Coomassie Protein Assay Kit, Thermo Fischer Scientific, 23200) using a spectrophotometer (GloMax Explorer GM3500, Microplate Reader) for reading of the optical density at 600 nm. The melanin content was determined after sample heating for 1 h at 80° C. for its solubilization and reading of the optical density at 490 nm. Afterwards, the amount of melanin was determined on the basis of a standard curve using synthetic melanin (Sigma Aldrich, 8631) and then normalized to the total protein content. […]
At the end of the treatments, intracellular melanin was extracted from cell cultures and analyzed as described in materials and methods in Example 1. […]

O=c1cc(CO)occ1O [Kojic acid]
melanin content vs untreated control: significantly decreased the melanin content
